Test results reported in patent US20210340502A1, “Generation of Post-Mitotic Migratory Cortical Interneurons” (The McLean Hospital Corporation, priority 2018, published 2021).
Entries after “also recorded” stand apart in the source; their conditions may differ.

What was measured:
[1] = tested on: MGE progenitors; experiment: KI67+ proliferating MGE progenitors after chemical treatment (immunocytochemistry and cell counting); type: cell-based; conditions: for proportion of proliferating MGE progenitors (in words): 3 week-old MGE progenitors treated for a week; for Percentage of proliferating cells (Average ± SEM, N): KI67+ cells, 3 week-old MGE progenitors treated 1 week, 20 μM FdU, 1% CultureOne, 10 mM DAPT, 2 μM PD0332991 or combination (CDP)
Protocol: For chemical treatment of cINs, the differentiated progenitors were seeded on PLO/FN-coated surface at 3 weeks after differentiation, and cultured in B27GB media without or with each chemical, 20 μM FdU (Sigma-Aldrich, Natick, Mass., USA), 1% CultureOne (C, Thermo Fisher, Waltham, Mass., USA), […] (D, Sigma-Aldrich, Natick, Mass., USA), and 2 μM PD0332991 (P, Sigma-Aldrich, Natick, Mass., US), or with combination of CultureOne, DAPT and PD0332991 (CDP) for the time period designated in each Figure.
Immunocytochemistry and cell counting. cINs on coverslips were fixed using 4% paraformaldehyde (PFA, Electron Microscopy Sciences, Hatfield, Pa.) for 15 min, washed with PBS and used for staining. The spheres at different differentiation stages were fixed by 4% PFA for 15 min, rinsed with PBS, cryo-protected in the 30% sucrose (Thermo Fisher, Waltham, Mass., USA) overnight at 4° C., mounted on the chuck using the O.C.T. Compound (Thermo Fisher, Waltham, Mass., USA) and cryosectioned at 40 μm using a Leica CM1850 cryostat (Leica Biosystem, Buffalo Grove, Ill., USA). Fixed cells or sphere sections were incubated with blocking/permeablization buffer (PBS with 10% normal serum and 0.1% Triton X-100) for 10 min. The samples were then incubated in primary antibodies in antibody dilution buffer (PBS containing 2% normal serum) overnight at 4° C. After washing with PBS, cells were incubated with fluorescently labeled secondary antibodies and DAPI (Invitrogen, Waltham, Mass., USA)) in antibody dilution buffer for 1 h at room temperature. Following the PBS wash, the samples were mounted with Fluoromount-G (SouthernBiotech, Birmingham, Ala., USA).
For cell counting, multi point function in Image J software (Version 1.51 p, NIH, Bethesda, Md., USA) was used. Percentage of positive cells for each marker was calculated by dividing by DAPI-stained total nuclei number from at least 3 separate biological replicates. For each staining, a total of at least 500 cells were counted for each group.

[2] = tested on: H9 cINs; experiment: Cryopreservation of cINs with Trehalose in freezing media; type: cell-based, human
Protocol: For cryopreservation, the trypsinized cells were resuspended in freezing media (FBS with 10% DMSO) with or without 100 mM Trehalose and were frozen slowly overnight in an insulated container at −80° C. deep freezer. After 24 hours, the stocks were moved to liquid nitrogen storage until further experiments. Frozen stocks were thawed quickly in a 37° C. water bath, transferred to 15 ml conical tubes with 5 ml media, centrifuged and resuspended in B27GB media with ROCK inhibitor for plating and further experiments.

[3] = tested on: cIN organoids; experiment: Passaging of cIN organoids with Trehalose; type: cell-based, human
Protocol: For passaging cINs, cells were trypsinized by 0.05% trypsin (Thermo Fisher, Waltham, Mass., USA) supplemented with or without 10 mM Trehalose (Sigma-Aldrich, Natick, Mass., USA). After 5 minutes' incubation at 37° C., the spheres were triturated to dissociate the spheres. An equal volume of DMEM media with 10% FBS (Hyclone, Marlborough, Mass., USA) was added to neutralize Trypsin. In addition, Turbo DNase (2 U/ml, Thermo Fisher, Waltham, Mass., USA) was added to help clear released DNAs from culture. The cells were then kept in the incubator for additional 15 min to remove any sticky DNA mass released during trituration. After incubation, the cells were centrifuged and resuspended by B27GB media with ROCK inhibitor. To exclude the dead cell cluster, the resuspended cells were filtered through a cell strainer cap (35 μm nylon mesh, Corning, N.Y., USA), and plated onto a PLO/FN-coated surface (Poly-L-Ornithine, 15 ug/ml, Sigma-Aldrich, Natick; Fibronectin, 10 ug/ml, Thermo Fisher, Waltham, Mass., USA) for the subsequent experiments.

| Compound | proportion of proliferating MGE progenitors (in words) [1] | Percentage of proliferating cells (Average ± SEM, N) [1] | survival of cryopreserved cINs after freeze-thaw ([2]; 100 mM Trehalose in freezing media) | cIN phenotypes after freeze-thaw ([2]; SOX6, GAD, β-TUBLIN three weeks after thawing) | viability during cryopreservation ([2]; optimized condition, compared to the cINs passaged without cryopreservation) | survival rate during passaging ([3]; 6 weeks after differentiation, 10 mM Trehalose in trypsin) | increase in survival rate during passaging ([3]; older organoids, after six months' differentiation) |
| --- | --- | --- | --- | --- | --- | --- | --- |
| C[C@H](NC(=O)Cc1cc(F)cc(F)c1)C(=O)N[C@H](C(=O)OC(C)(C)C)c1ccccc1 [DAPT] | significantly reduced the proportion of proliferating progenitors; also recorded: worked well to control cell cycle exit of MGE cells | 8.835 ± 1.618, 4% | – | – | – | – | – |
| OC[C@H]1O[C@H](O[C@H]2O[C@H](CO)[C@@H](O)[C@H](O)[C@H]2O)[C@H](O)[C@@H](O)[C@@H]1O [Trehalose] | – | – | significantly increased survival | without affecting their phenotypes | 65.27±8.97% | significantly increased the survival rate | much more pronounced |
| O=c1[nH]c(=O)n([C@H]2C[C@H](O)[C@@H](CO)O2)cc1F [FdU, 5-fluoro-2′-deoxyuridine] | did not influence the proportion of proliferating MGE progenitors; also recorded: not effective in reducing immature proliferating cell numbers | 31.719 ± 1.486, 4% | – | – | – | – | – |
| CC(=O)c1c(C)c2cnc(Nc3ccc(N4CCNCC4)cn3)nc2n(C2CCCC2)c1=O [PD0332991] | significantly reduced the proportion of proliferating progenitors; also recorded: effective in regulating MGE cell cycle exit | 5.160 ± 1.042, 4% | – | – | – | – | – |
